Assay results: patent publication US12102638B2 (Urovant Sciences GmbH, priority 2017, dated 2024)
Several values for one entry are separate records, joined by “and”; a condition that tells them apart may be missing. Identical values can stand only once. Like-named read-outs stand apart in the source and are kept apart here.

Experiments:
Type in all cases: in vivo, human
[1] = single rising oral dose Phase 1 pharmacokinetics in healthy subjects; settings: for AUC(0-t): read-out: AUC0-24
Method: All subjects were healthy adults. […] Systemic exposures were greater than dose proportional up to 600 mg.

[2] = single-dose PK in patients with renal impairment; settings: for CL/F, geometric LS mean / Fe[urine]48 hr, geometric mean: single 100 mg
Source text: The relationship between clearance and renal function was modeled using linear regression.

[3] = drug interaction studies: effect of co-administered medication on vibegron PK
Source text: However, these interactions are not expected to be clinically significant.

healthy subjects = assay: thorough QT single oral dose study
[4] = male, human, plasma, oral, 50 mg, single 50 mg, healthy young males
[5] = male, human, plasma, oral, 50 mg, single 50 mg, healthy young males, Japanese
[6] = Healthy Matched Control Subjects
[7] = multiple doses of 240 mg or 180 mg diltiazem

O=C(Nc1ccc(C[C@@H]2CC[C@H]([C@H](O)c3ccccc3)N2)cc1)[C@@H]1CCc2nccc(=O)n21 [vibegron, (6S)—N-[4-[[(2S,5R)-5-[(R)-hydroxy(phenyl)methyl]pyrrolidin-2-yl]methyl]phenyl]-4-oxo-7,8-dihydro-6H-pyrrolo[1,2-a]pyrimidine-6-carboxamide]
Cmax [1, 4]: 31.7 ± 35 ng/mL | Cmax [1, 5]: 62.2 ± 20.4 ng/mL | AUC(0-t) [1, 5]: 385 ± 136 ng·h/mL | AUC(0-inf) ([1]; male, human, plasma, oral, 50 mg, single 50 mg, healthy young males, Japanese, read-out: AUC0-inf): 885 ± 241 ng·h/mL | AUC(0-t) [1, 4]: 219 ± 123 ng·h/mL | AUC(0-inf) ([1]; male, human, plasma, oral, 50 mg, single 50 mg, healthy young males, read-out: AUC0-inf): 551 ± 262 ng·h/mL | t1/2, harmonic mean ± pseudo SD ([1]; single 20 mg, healthy young males): 64.2 ± 12.6 h | t1/2, harmonic mean ± pseudo SD ([1]; single 50 mg, Elderly Male and Female): 92 h and 92.1 ± 15.9 h | t1/2, harmonic mean ± pseudo SD ([1]; single 50 mg, healthy young males, Japanese): 64.4 ± 8.7 h | t1/2, harmonic mean ± pseudo SD ([1]; single 100 mg, healthy young males): 72.8 ± 10.8 h | AUC(0-inf) ([1]; single 150 mg, healthy young males): 2270 ± 911 ng·h/mL | t1/2, harmonic mean ± pseudo SD ([1]; single 200 mg, healthy young males): 75.3 ± 9.1 h | t1/2, harmonic mean ± pseudo SD ([1]; single 200 mg, healthy young males, Japanese): 58.4 ± 9.0 h | t1/2, harmonic mean ± pseudo SD ([1]; single 300 mg, healthy young males, Japanese): 59.7 ± 9.2 h | t1/2, harmonic mean ± pseudo SD ([1]; single 450 mg, healthy young males): 60.0 ± 9.4 h | AUC0-inf higher compared to healthy matched control ([2]; mild renal impairment): 49% | CLR reduced compared to healthy matched control ([2]; mild renal impairment): 39% | Cmax higher compared to healthy matched control ([2]; mild renal impairment): 96% | AUC0-inf higher compared to healthy matched control ([2]; moderate renal impairment): 106% | CLR reduced compared to healthy matched control ([2]; moderate renal impairment): 65% | Cmax higher compared to healthy matched control ([2]; moderate renal impairment): 68% | mean increase in AUC compared to subjects with normal renal function ([2]; moderate renal impairment): 1.6 fold | AUC0-inf higher compared to healthy matched control ([2]; severe renal impairment): 83% | CLR reduced compared to healthy matched control ([2]; severe renal impairment): 82% | Cmax higher compared to healthy matched control ([2]; severe renal impairment): 42% | CL/F, geometric LS mean [2, 6]: 64.9 L/h | Fe[urine]48 hr, geometric mean [2, 6]: 7.9% | CL/F, geometric LS mean ([2]; Mild Renal Impairment): 43.6 L/h | Fe[urine]48 hr, geometric mean ([2]; Mild Renal Impairment): 8.5% | CL/F, geometric LS mean ([2]; Moderate Renal Impairment): 31.5 L/h | Fe[urine]48 hr, geometric mean ([2]; Moderate Renal Impairment): 5.5% | CL/F, geometric LS mean ([2]; Severe Renal Impairment): 35.5 L/h | Fe[urine]48 hr, geometric mean ([2]; Severe Renal Impairment): 2.1% | CL/F increase per one mL/min/1.73 m^2 increase in eGFR ([2]; slope of linear regression): ~0.8% | effect of Tolterodine ER 4 mg on the pharmacokinetics of vibegron ([3]; in vivo): no effect | GM vibegron AUC0-inf increase [3, 7]: 63% | GM vibegron Cmax increase [3, 7]: 68% | AUC, mean ± SD (healthy subjects; single 200 mg): 2430 ± 974 ng·h/mL | Maximum Mean Placebo Corrected Change from Baseline Diastolic BP (healthy subjects; single 200 mg): 2.42 mmHg | Maximum Mean Placebo Corrected Change from Baseline RR interval (healthy subjects; single 200 mg): -84.36 ms | Maximum Mean Placebo Corrected Change from Baseline Systolic BP (healthy subjects; single 200 mg): 2.20 mmHg | upper limits of the 90% CIs of all QTcF mean differences from placebo (healthy subjects; single 200 mg and 400 mg): < 10 ms | QTcF LS mean difference from placebo (healthy subjects; single 200 mg, 0.5 hour): 2.90 ms | QTcF change from baseline, LS mean (healthy subjects; single 200 mg, 0.5 hour): 1.90 ms | QTcF change from baseline, LS mean (healthy subjects; single 200 mg, 1 hour): 4.87 ms | QTcF LS mean difference from placebo (healthy subjects; single 200 mg, 1 hour (maximum)): 4.98 (3.07, 6.88) msec and 4.98 msec | QTcF LS mean difference from placebo (healthy subjects; single 200 mg, 2 hour): 2.14 ms | QTcF change from baseline, LS mean (healthy subjects; single 200 mg, 2 hour): 2.06 ms | QTcF LS mean difference from placebo (healthy subjects; single 200 mg, 3 hour): 0.40 ms | QTcF change from baseline, LS mean (healthy subjects; single 200 mg, 3 hour): 1.14 ms | QTcF LS mean difference from placebo (healthy subjects; single 200 mg, 4 hour): -0.83 ms | QTcF change from baseline, LS mean (healthy subjects; single 200 mg, 4 hour): -0.40 ms | QTcF LS mean difference from placebo (healthy subjects; single 200 mg, 6 hour): -1.26 ms | QTcF change from baseline, LS mean (healthy subjects; single 200 mg, 6 hour): -6.89 ms | QTcF LS mean difference from placebo (healthy subjects; single 200 mg, 8 hour): -1.24 ms | QTcF change from baseline, LS mean (healthy subjects; single 200 mg, 8 hour): -9.59 ms | QTcF LS mean difference from placebo (healthy subjects; single 200 mg, 10 hour): -2.67 ms | QTcF change from baseline, LS mean (healthy subjects; single 200 mg, 10 hour): -8.82 ms | QTcF LS mean difference from placebo (healthy subjects; single 200 mg, 12 hour): -3.72 ms | QTcF change from baseline, LS mean (healthy subjects; single 200 mg, 12 hour): -6.82 ms | QTcF LS mean difference from placebo (healthy subjects; single 200 mg, 23.5 hour): 0.38 ms | QTcF change from baseline, LS mean (healthy subjects; single 200 mg, 23.5 hour): -2.15 ms | AUC, mean ± SD (healthy subjects; single 400 mg): 6800 ± 2300 ng·h/mL | Maximum Mean Placebo Corrected Change from Baseline Diastolic BP (healthy subjects; single 400 mg): 3.99 mmHg | Maximum Mean Placebo Corrected Change from Baseline RR interval (healthy subjects; single 400 mg): -162.45 ms | Maximum Mean Placebo Corrected Change from Baseline Systolic BP (healthy subjects; single 400 mg): 3.97 mmHg | QTcF LS mean difference from placebo (healthy subjects; single 400 mg, 0.5 hour): 3.37 ms | QTcF change from baseline, LS mean (healthy subjects; single 400 mg, 0.5 hour): 2.37 ms | QTcF change from baseline, LS mean (healthy subjects; single 400 mg, 1 hour): 4.49 ms | QTcF LS mean difference from placebo (healthy subjects; single 400 mg, 1 hour (maximum)): 4.60 (2.71, 6.48) msec and 4.60 msec
